This is an account of results in PMC5013292, “A Putative Bacterial ABC Transporter Circumvents the Essentiality of Signal Peptidase” (mBio, 2016).

Test [1] has as its system S. aureus USA300 wild type. Put plainly: microbe, parasite or virus in culture. Format: cell-based. An excerpt: Wild-type clinical S. aureus strains were obtained from the Network on Antibiotic Resistance in Staphylococcus aureus (NARSA/BEI) program. MRSA strain USA300 refers throughout this paper to strain NRS384 from NARSA/BEI. A global panel of 102 clinical S. aureus isolates was selected from the collection of International Health Management Associates, Inc. (IHMA; Schaumburg, IL), based on diversity of geographic locations, antibiotic resistance profiles, and sites of infection. Bacteria were cultured on cation-adjusted Mueller-Hinton agar (MHA) plates or in cation-adjusted Mueller-Hinton broth (MHB). Bacterial strains used in this study are listed in Table S5 in the supplemental material.
(§1) MICs were determined according to the standard protocol from the Clinical and Laboratory Standards Institute ([23]). Briefly, S. aureus bacteria were harvested from regular MHA plates that had been cultured for ~20 h at 37°C. Serial dilutions of compound 103 were incubated with bacteria at approximately 10^6 CFU (CFU)/ml in MHB in round-bottom 96 well plates (Corning, Corning, NY) for 22 h at 37°C. MICs were determined by the lowest concentration of compound 103 showing absence of growth by visual inspection.

Test [2] deals with S. aureus USA300 cro/cI (M1V) (GNE0117). The experiment in a line: MIC, cro/cI(M1V) mutant. It is filed as cell-based. Particulars: for effect of cro/cI mutation on sensitivity to antibiotics: result in words, versus USA300 WT. On the procedure:
as §1

The subject of test [3] is S. aureus USA300 SAUSA300_0352(K44A) mutant (strain GNE0174). Put plainly: MIC, K44A mutant GNE0174. It is filed as cell-based. Here is the method: as §1
(§2) To generate mutations in SAUSA300_0351, _0352, and _0353 genes by homologous recombination, we transformed USA300 Δmcr using targeting constructs created in the vector pIMAY ([24]). To generate mutations in SAUSA300_0351, _0352, and _0353 genes in a cro/cI mutant background, we selected colonies from USA300 Δmcr cultured on plates containing fourfold the MIC of compound 103. Sequencing of PCR products of the cro/cI gene from resistant colonies yielded a clone with a Q16stop codon mutation in cro/cI (strain GNE0173). We further mutated SAUSA300_0351, _0352, and _0353 in this USA300 Δmcr cro/cI (Q16stop) clone to study the contributions of these three genes to cro/cI-mediated resistance.

For test [4], the system named is USA300 WT strain (strain GNE0023). Put plainly: MIC, parental USA300 WT strain GNE0023. It is filed as cell-based, S. aureus. Here is the method:
as §1, §2

Where [5] appears, read: S. aureus USA300 cro/cI (M1V) (GNE0117), Table S2.

Converted amounts (≈) assume the structure as drawn.

In turn, `CCC[C@@H]1C[C@@H](C(=O)N[C@@H]([C@H]2O[C@H](SC)[C@H](O)[C@@H](O)[C@H]2O)[C@H](C)Cl)N(C)C1` [Clindamycin] returned an MIC in test [1] (Staphylococcus aureus, USA300) of 0.25 µg/mL (≈ 0.588 µM). Moreover, in test [2], the “effect of cro/cI mutation on sensitivity to antibiotics” value (from here on “effect of cro/cI mutation”) was “did not reduce sensitivity”.
On to `CCCCCCCCCC(=O)N[C@@H](Cc1c[nH]c2ccccc12)C(=O)N[C@H](CC(N)=O)C(=O)N[C@@H](CC(=O)O)C(=O)N[C@@H]1C(=O)NCC(=O)N[C@@H](CCCN)C(=O)N[C@@H](CC(=O)O)C(=O)N[C@H](C)C(=O)N[C@@H](CC(=O)O)C(=O)NCC(=O)N[C@H](CO)C(=O)N[C@@H]([C@H](C)CC(=O)O)C(=O)N[C@@H](CC(=O)c2ccccc2N)C(=O)O[C@@H]1C` [Daptomycin], for which the MIC was 2 µg/mL (≈ 1.23 µM) in test [1] (S. aureus USA300 WT, Table S2) and 2 µg/mL (≈ 1.23 µM) in test [2] (setting [5]). Besides, in test [2], the “effect of cro/cI mutation” value is recorded as “did not reduce sensitivity”.
Turning to `CC[C@H]1OC(=O)[C@H](C)[C@@H](O[C@H]2C[C@@](C)(OC)[C@@H](O)[C@H](C)O2)[C@H](C)[C@@H](O[C@@H]2O[C@H](C)C[C@H](N(C)C)[C@H]2O)[C@](C)(O)C[C@@H](C)C(=O)[C@H](C)[C@@H](O)[C@]1(C)O` [Erythromycin], the MIC in test [1] (Staphylococcus aureus, USA300) was greater than 64 µg/mL; in test [2] (Staphylococcus aureus, USA300), greater than 64 µg/mL. Further, in test [2], the “effect of cro/cI mutation” value is “did not reduce sensitivity”.
In test [1] (Staphylococcus aureus, USA300), `COc1c(N2CCNC(C)C2)c(F)cc2c(=O)c(C(=O)O)cn(C3CC3)c12` (stereo not drawn) [Gatifloxacin] registered an MIC of 0.5 µg/mL (≈ 1.33 µM). Further, in test [2], the “effect of cro/cI mutation” value is reported as “did not reduce sensitivity”.
Consider `CNC(C)C1CCC(N)C(OC2C(N)CC(N)C(OC3OCC(C)(O)C(NC)C3O)C2O)O1` (stereo not drawn) [Gentamycin], for which the MIC in test [1] (Staphylococcus aureus, USA300) is 1 µg/mL (≈ 2.09 µM). Also, the “effect of cro/cI mutation” value in test [2] is “did not reduce sensitivity”.
Take `CC(=O)NC[C@H]1CN(c2ccc(N3CCOCC3)c(F)c2)C(=O)O1` [Linezolid]: in test [1] (Staphylococcus aureus, USA300), the MIC worked out at 4 µg/mL (≈ 11.9 µM). In test [2], the “effect of cro/cI mutation” value is “did not reduce sensitivity”.
In the same order, the values of `CO[C@@H]1[C@@H](OC(N)=O)[C@@H](O)[C@H](Oc2ccc3c(O)c(NC(=O)c4ccc(O)c(CC=C(C)C)c4)c(=O)oc3c2C)OC1(C)C` [Novobiocin] are 0.25 µg/mL (≈ 0.408 µM) and “did not reduce sensitivity”.
In the case of `Cc1onc(-c2ccccc2)c1C(=O)N[C@@H]1C(=O)N2[C@@H]1SC(C)(C)[C@@H]2C(=O)O` [Oxacillin], in test [1] (Staphylococcus aureus, USA300), the MIC was determined as 64 µg/mL (≈ 159 µM). For the same molecule, in test [2], the “effect of cro/cI mutation” value was “did not reduce sensitivity”.
Taken in the same sequence, the figures for `CO[C@H]1/C=C/O[C@@]2(C)Oc3c(C)c(O)c4c(O)c(c(/C=N/N5CCN(C)CC5)c(O)c4c3C2=O)NC(=O)/C(C)=C\C=C\[C@H](C)[C@H](O)[C@@H](C)[C@@H](O)[C@@H](C)[C@H](OC(C)=O)[C@@H]1C` [Rifampicin] were 0.06 µg/mL (≈ 0.0729 µM) and “did not reduce sensitivity”.
Consider `CN[C@H](CC(C)C)C(=O)N[C@H]1C(=O)N[C@@H](CC(N)=O)C(=O)N[C@H]2C(=O)N[C@H]3C(=O)N[C@H](C(=O)N[C@H](C(=O)O)c4cc(O)cc(O)c4-c4cc3ccc4O)[C@H](O)c3ccc(c(Cl)c3)Oc3cc2cc(c3O[C@@H]2O[C@H](CO)[C@@H](O)[C@H](O)[C@H]2O[C@H]2C[C@](C)(N)[C@H](O)[C@H](C)O2)Oc2ccc(cc2Cl)[C@H]1O` [Vancomycin], for which the MIC worked out at 2 µg/mL (≈ 1.38 µM) in test [1] (S. aureus USA300 WT, Table S2) and 1 µg/mL (≈ 0.69 µM) in test [2] (setting [5]). Besides, the “effect of cro/cI mutation” value in test [2] is “did not reduce sensitivity”.
As for nisin, the MIC in test [3] and in test [4] was 200 µg/mL throughout.
On to protamine, for which the MIC in test [3] and in test [4] was 8 µg/mL in each case.
